“Also recorded” adds a separate entry of the source. Read-outs that look alike come from different tables or passages of the source.
Key:
[1] = system: murine microglia cell line N9; test: TNF-α release by murine microglia N9; format: cell-based
Method: Confluent cell cultures from the murine microglia cell line N9 were pre-incubated in the presence or in the absence of 50 μM fluridone for 4 hours and then stimulated with 10 μM ABA or with 100 ng/ml lipopolysaccharide for 24 hours. The concentration of PGE2 (panel A) and of TNF-α (panel B) in the cell supernatant was measured as described under Materials and Methods. The results are expressed as release relative to control cultures in the absence of added stimuli and are the mean ±SD from 4 experiments.
(§1) The method used to assay TNF-α is based on the high sensitivity of the murine fibroblast cell line L929 to the toxic effect of this cytokine. Briefly, fibroblasts were seeded (3×10^4/well) in 96-well plates and after 24 h the medium was substituted with the supernatant of the cell cultures where the TNF-α content was to be estimated. In parallel, known amounts of the cytokine were added to other wells, in order to obtain a standard curve of toxicity. After 48 hours, MTT (0.05 mg/ml) was added to each well and after 3 hours incubation at 37° C. (during this time viable cells reduce the dye producing formazan crystals), the medium was removed, DMSO (200 μl/well) was added to dissolve the formazan crystals and the absorbance was recorded at 570 nm with a spectrophotometric plate reader. The TNF-α concentration in the culture supernatants was calculated by comparison of the percentage of viable cells in the treated wells with those containing known amounts of TNF-α (standard curve). The PGE2 release in the medium by stimulated inflammatory cells was measured by an immunoenzymatic assay kit, commercially available (PGE2 EIA-kit, Cayman Chemicals, Ann Arbor, Mich., USA).

human lymphocytes = test: Lymphocyte proliferation ([3H]-thymidine incorporation); format: cell-based; conditions: for inhibition at 50 µM: Homo sapiens, Lymphocyte, pre-incubation with fluridone 50 μM
Method: Low density mononuclear cells (lymphocytes and monocytes), isolated from peripheral blood, were incubated in triplicate (1.5×10^5/well) in 96-well plates in RPMI containing 20% autologous plasma in the absence (control) or in the presence of 50 μM fluridone for 18 hours. Phytohemagglutinin (PHA) (0.1 μg/ml) or phorbol myristate acetate (PMA) (0.1 μg/ml) were then added, with or without the simultaneous addition of ABA. After 72 hours, [^3H]-Thymidine (Amersham Biosciences, Uppsala, Sweden) was added to the cultures (0.2 μCi/well) and after 6 hours the incorporated radioactivity was evaluated by filtration of the cells on glass fiber filters (Whatman, Maidenstone, UK). Results are the mean ±SD from 3 experiments. In the absence of stimuli (PHA or PMA), no lymphocyte proliferation was observed.
Blood enriched in leukocytes (buffy coat), was provided by Galliera Hospital, Genova, Italy, upon informed consent of the volunteer donors. Lymphocytes, granulocytes and monocytes were isolated by density centrifugation through Ficoll-Paque (Amersham Biosciences, Uppsala, Sweden). Low-density mononuclear cells (including lymphocytes and monocytes) were collected at the plasma-Ficoll interphase and monocytes were further purified by adherence to plastic cell culture flasks. Granulocytes were isolated from high-density cells, sedimented under the Ficoll layer by hypotonic lysis of contaminating erythrocytes. All cell populations were then resuspended in RPMI 1640 medium (Sigma) containing penicillin (100 U/ml), streptomycin (100 μg/ml) and 20% autologous plasma. Culture conditions were as those described below for cell lines.

human monocytes [2] = test: MCP-1 release from human monocytes; format: cell-based
Method: Human monocytes were incubated for 6 hours with 10 μM ABA or with 100 ng/ml of lipopolysaccharide (LPS), in the presence or in the absence of fluridone (50 μM) and the MCP-1 concentration in the cell supernatant was immunoenzimatically measured, with a commercially available kit (R&D System, CA, USA). The results are the mean ±SD from 3 experiments.

[3] = system: murine microglia cell line N9; test: NO release by murine microglia N9; format: cell-based
Method: The method used to determine NO released from the cells into the medium exploits the spontaneous conversion of NO to nitrates and the subsequent enzymatic reduction of nitrates to nitrites by the enzyme nitrate reductase. […] Granulocytes (60×10^6/well) or murine microglia cells N9 (2×10^5/well) were incubated in 24-well plates for 60 min at 37° C. in the presence of ABA at different concentrations. The supernatants were then centrifuged and diluted with an equal volume of Griess reagent (0.1% naphthyl-ethylenediamine dihydrochloride in distilled water, 1% sulphanylamide in 5% concentrated H3PO4). Absorbance at 545 nm was estimated after 10 min and the nitrite concentration was calculated using a standard curve, generated in parallel with known amounts of NaNO2.

human granulocytes [4] = test: NO release by granulocytes (nitrite, Griess); format: cell-based
Method: Granulocytes were resuspended at 5×10^6/ml in HBSS and 225 μl of the cell suspension were added to 50 μl of 0.2 mM cytochrome c and were incubated for 30 min at 37° C. in the absence (control) or in the presence of 250 nM or 20 μM ABA, the latter concentration without or with 1 mM EDTA, 20 mM nicotinamide or 0.1 mM 8-Br-cADPR. […] The results are expressed as the production relative to control cells, not stimulated with ABA, and are the mean ±SD from 5 experiments.

human monocytes [5] = test: TNF-α release by human monocytes (L929 toxicity assay); format: cell-based
Method: (§2) Human monocytes were pre-incubated with 50 μM fluridone (flu) for 2 hours and then stimulated with 10 μM ABA or with 100 ng/ml of lipopolysaccharide (LPS) for 6 hours. The concentration of PGE2 (panel A) and of TNF-α (panel B) in the cell supernatant was measured as described under Materials and Methods and compared with that of untreated cells (control). The results are the mean ±SD from 4 experiments.
as §1

[6] = system: murine macrophages RAW 264.7; test: PGE2 production by murine macrophages RAW 264.7; format: cell-based
Method: (§3) Murine macrophages of the continuous cell line RAW 264.7 were pre-incubated with 50 μM fluridone (flu) for 2 hours and then stimulated with 10 μM ABA or with 100 ng/ml of lipopolysaccharide (LPS) for 6 hours. The concentration of PGE2 (panel A) or of TNF-α (panel B) in the cell supernatant was measured as described under Materials and Methods and was compared with that from untreated (control) cells. The results are the mean ±SD from 4 experiments.
as §1

[7] = cited from earlier work
human monocytes [8] = test: PGE2 production / COX-2 expression in human monocytes; format: cell-based
Method: as §2, §1

[9] = system: murine macrophages RAW 264.7; test: TNF-α production by murine macrophages RAW 264.7; format: cell-based
Method: as §3, §1

human granulocytes [10] = test: ROS production by granulocytes (cytochrome c assay); format: cell-based; conditions: ABA 0.2-20 μM
Method: Granulocytes were resuspended at 5×10^6/ml in HBSS and 225 μl of the cell suspension were added to 50 μl of 0.2 mM cytochrome c and were incubated for 30 min at 37° C. in the absence (control) or in the presence of 250 nM or 20 μM ABA, the latter concentration without or with 1 mM EDTA, 20 mM nicotinamide or 0.1 mM 8-Br-cADPR. The amount of ROS (panel A) or of NO (panel B) in the cell supernatant was measured as described in Materials and Methods. The results are expressed as the production relative to control cells, not stimulated with ABA, and are the mean ±SD from 5 experiments.
Release of superoxide (O2^−) by human granulocytes was quantified by a spectrophotometric assay of cytochrome c reduction (Cohen, J Clin Invest 1978). Granulocytes were resuspended in HBSS (at 5×10^6 cells/ml) and 225 μl of the cell suspension was incubated for 30 min at 37° C. with 50 μl cytochrome c (0.2 mM) in the absence (control) or in the presence of ABA at different concentrations. Then, cells were centrifuged at 5,000×g for 15 s and the absorbance of the supernatants was recorded at 550 nm (λmax for reduced cytocrome c).

[11] = exogenous ABA 10-20 μM added to fluridone-treated cultures

Cn1cc(-c2ccccc2)c(=O)c(-c2cccc(C(F)(F)F)c2)c1 [Fluridone, 1-methyl-3-phenyl-5-(α,α,α-trifluoro-m-tolyl)-4-pyridone]
Effects of Fluridone: TNF-α release [1]: ↓TNF-α release | Effects of Fluridone: PMA-, LPS-, PHA-induced proliferation (human lymphocytes): ↓PMA-, LPS-, | inhibition at 50 µM (human lymphocytes; read-out: inhibition of PHA-induced cell proliferation): 50% | inhibition at 50 µM (human lymphocytes; read-out: inhibition of PMA-induced cell proliferation): 90% | Effects of Fluridone: MCP-1 release (human monocytes [2]): ↓MCP-1 release | release of MCP-1 by LPS-stimulated monocytes (human monocytes [2]; fluridone 50 μM): almost completely inhibits | Effects of Fluridone: NO release [3]: ↓NO release | Effects of Fluridone: fMLP-, ATP-, β-amyloid-induced NO release (human granulocytes [4]): ↓fMLP-, ATP-, β- | inhibition at 50 µM (human granulocytes [4]; Homo sapiens, read-out: inhibition of NO release): ~80% | Effects of Fluridone: TNF-α release (human monocytes [5]): ↓TNF-α release | inhibition at 50 µM (human monocytes [5]; Homo sapiens, Monocyte, fluridone 50 μM, read-out: inhibition of LPS-induced TNF-α production): 90% | Effects of Fluridone: COX-PGE2 [6]: ↓COX-PGE2 | LPS-stimulated PGE2 production ([6]; fluridone 50 μM): completely inhibits | maximum permissible intake allowed in humans ([7]; from chronic toxicity in rats fed with fluridone, dose reduction of two logarithms): 4.8 mg/kg/day | ADI (acceptable daily intake) ([7]; humans): 0.08 mg/Kg/die | Effects of Fluridone: COX-PGE2 (human monocytes [8]): ↓COX-PGE2 | LPS-stimulated PGE2 production (human monocytes [8]; fluridone 50 μM): completely inhibits | Effects of Fluridone: TNF-α release [9]: ↓TNF-α release | inhibition at 50 µM ([9]; Mus musculus, RAW264.7, fluridone 50 μM, read-out: inhibition of LPS-induced TNF-α production): 90%

CC1=CC(=O)CC(C)(C)[C@@]1(O)/C=C/C(C)=C\C(=O)O (racemic) [ABA, (±)-cis, trans ABA]
release of TNF-α ([1]; ABA 0.2-20 μM): increase; also recorded: ↑TNF-α release | TNF-α release compromised by fluridone [1, 11]: partly restores | stimulation of proliferation (human lymphocytes; ABA 50 to 500 μM, in the absence of other stimuli (PMA, PHA)): 30% | Effects of ABA: proliferation (human lymphocytes; Added ABA 50-500 μM): ↑proliferation | restoration of the proliferative response (human lymphocytes; excess exogenous ABA 500 μM together with fluridone): approximately 40% | increase of release of MCP-1 (human monocytes [2]; ABA 0.1-10 μM): approx. two-fold | Effects of ABA: MCP-1 release (human monocytes [2]; Added ABA 5-50 μM): ↑MCP-1 release | release of NO ([3]; ABA 0.2-20 μM): increase; also recorded: ↑NO release | NO release compromised by fluridone [3, 11]: partly restores | production/release of nitric oxide (NO) (human granulocytes [4]; ABA 0.2-20 μM): stimulation; also recorded: ↑NO release | release of TNF-α (human monocytes [5]; ABA 0.1-10 μM): significant increase | Effects of ABA: TNF-α release (human monocytes [5]; Added ABA 5-50 μM): ↑TNF-α release | TNF-α release compromised by fluridone (human monocytes [5]; [11]): partly restores | release of PGE2 (COX-PGE2) ([6]; ABA 0.1-10 μM): increased release; also recorded: ↑COX-PGE2 | production of reactive oxygen species (ROS) (human granulocytes [10]): stimulation; also recorded: ↑ROS release | expression of cyclooxygenase 2 (COX-2), Western blot (human monocytes [8]; ABA 0.1-10 μM): increased expression | production of prostaglandin E2 (PGE2) (human monocytes [8]; ABA 0.1-10 μM): increased production | Effects of ABA: COX-PGE2 (human monocytes [8]; Added ABA 5-50 μM): ↑COX-PGE2 | release of TNF-α ([9]; ABA 0.1-10 μM): increased release; also recorded: ↑TNF-α release | TNF-α release compromised by fluridone [9, 11]: partly restores
